Assay results from the supplement of paper PMC11061612.

How the values were obtained:
Assay in all cases: combination Emax (second highest fraction inhibited in the dose matrix, 72 h); higher = more inhibition; extreme values may be limits of the assay
HOS (Osteosarcoma) = test system: HOS (Osteosarcoma)
Procedure, shortened: (§1)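 Bliss excess equals the observed combination effect minus the expected value EA + EB − EA·EB, where EA and EB are the effects of each agent alone. Combination Emax is the second-highest inhibition within the matrix. Inhibition was scaled from CellTiter-Glo 2.0 luminescence, with 0 set by vehicle wells and 1 by blank wells, after 72 hours of two-drug dosing of cells plated in 1536-well plates.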

[1] = test system: LU-135 (Small Cell Lung Carcinoma)
Procedure, shortened: as §1

[2] = test system: LS-180 (Colorectal Carcinoma)
Procedure, shortened: as §1

[3] = test system: ME-1 (Acute Myeloid Leukemia)
Procedure, shortened: as §1

[4] = test system: B-CPAP (Thyroid Gland Carcinoma)
Procedure, shortened: as §1

[5] = test system: HCC1806 (Breast Carcinoma)
Procedure, shortened: as §1

[6] = test system: Ramos-2G6-4C10 (Burkitt's Lymphoma)
Procedure, shortened: as §1

[7] = test system: CAL-148 (Breast Carcinoma)
Procedure, shortened: as §1

[8] = test system: Calu-3 (Lung Adenocarcinoma)
Procedure, shortened: as §1

[9] = test system: DoTc2-4510 (Cervical Carcinoma)
Procedure, shortened: as §1

[10] = test system: RO82-W-1 (Thyroid Gland Carcinoma)
Procedure, shortened: as §1

NB10 (Neuroblastoma) = test system: NB10 (Neuroblastoma)
Procedure, shortened: as §1

[11] = test system: SK-ES-1 (Ewing's Sarcoma)
Procedure, shortened: as §1

[12] = test system: KYSE-520 (Esophageal Squamous Cell Carcinoma)
Procedure, shortened: as §1

KELLY (Neuroblastoma) = test system: KELLY (Neuroblastoma)
Procedure, shortened: as §1

[13] = test system: COLO-205 (Colorectal Carcinoma)
Procedure, shortened: as §1

[14] = test system: KURAMOCHI (Ovarian Carcinoma)
Procedure, shortened: as §1

NOS-1 (Osteosarcoma) = test system: NOS-1 (Osteosarcoma)
Procedure, shortened: as §1

[15] = test system: OVCA420 (Ovarian Carcinoma)
Procedure, shortened: as §1

[16] = test system: LNCaP-Clone-FGC (Prostate Carcinoma)
Procedure, shortened: as §1

| Structure (SMILES) | combination Emax (HOS (Osteosarcoma)) | combination Emax [1] | combination Emax [2] | combination Emax [3] | combination Emax [4] | combination Emax [5] | combination Emax [6] | combination Emax [7] | combination Emax [8] | combination Emax [9] | combination Emax [10] | combination Emax (NB10 (Neuroblastoma)) | combination Emax [11] | combination Emax [12] | combination Emax (KELLY (Neuroblastoma)) | combination Emax [13] | combination Emax [14] | combination Emax (NOS-1 (Osteosarcoma)) | combination Emax [15] | combination Emax [16] |
| --- | --- | --- | --- | --- | --- | --- | --- | --- | --- | --- | --- | --- | --- | --- | --- | --- | --- | --- | --- | --- |
| NC1(C(=O)N[C@@H](CCO)c2ccc(Cl)cc2)CCN(c2ncnc3[nH]ccc23)CC1 [Capivasertib] + Cn1cnc2c(F)c(Nc3ccc(Br)cc3Cl)c(C(=O)NOCCO)cc21 [Selumetinib] (first compound max 10 µM, 7x7, partner max 10 µM) | 0.491 | 0.352 | 0.771 | 0.342 | 0.499 | 0.595 | 0.435 | 0.981 | 0.461 | 0.408 | 0.277 | 0.428 | 0.429 | 0.583 | 0.44 | 0.778 | 0.444 | 0.388 | 0.651 | 0.969 |
| CN(CCO)CC[C@H](CSc1ccccc1)Nc1ccc(S(=O)(=O)NC(=O)c2ccc(N3CCC([C@@H](O)c4ccccc4-c4ccc(Cl)cc4)CC3)cc2)cc1S(=O)(=O)C(F)(F)F [AZD4320] + CN(C)CCCOc1ccc(-c2ccc3ncc4c(c3c2)n(C2CCOCC2)c(=O)n4C)cn1 [AZD0156] (first compound max 1 µM, 7x7, partner max 1 µM) | 0.0916 | 1 | 0.159 | 1 | 0.408 | 0.133 | 0.345 | 0.504 | 0.117 | 0.6 | 0.469 | 0.215 | 0.899 | 0.157 | 0.597 | 0.77 | 0.189 | 0.611 | 0.174 | 0.335 |
| CN(CCO)CC[C@H](CSc1ccccc1)Nc1ccc(S(=O)(=O)NC(=O)c2ccc(N3CCC([C@@H](O)c4ccccc4-c4ccc(Cl)cc4)CC3)cc2)cc1S(=O)(=O)C(F)(F)F [AZD4320] + CCN(CCO)CCCOc1ccc2c(Nc3cc(CC(=O)Nc4cccc(F)c4)[nH]n3)ncnc2c1 [AZD2811] (first compound max 1 µM, 7x7, partner max 1 µM) | 0.12 | 1 | 0.18 | 1 | 0.57 | 0.201 | 0.909 | 1 | 0.168 | 0.735 | 0.46 | 0.408 | 1 | 0.292 | 0.892 | 0.974 | 0.327 | 0.667 | 0.174 | 0.245 |
| CCN(CCO)CCCOc1ccc2c(Nc3cc(CC(=O)Nc4cccc(F)c4)[nH]n3)ncnc2c1 [AZD2811] + C=CCn1c(=O)c2cnc(Nc3ccc(N4CCN(C)CC4)cc3)nc2n1-c1cccc(C(C)(C)O)n1 [AZD1775] (first compound max 1 µM, partner max 1 µM) | 0.298 | 0.921 | 0.42 | 0.299 | 0.334 | 0.867 | 0.957 | 0.994 | 0.0931 | 0.534 | 0.356 | 0.466 | 0.971 | 0.306 | 1 | 0.854 | 0.646 | 0.244 | 0.179 | 0.699 |
| Cc1c2c(nn1C)CSCc1cc(n(C)n1)CSc1cc(c3ccccc3c1)OCCCc1c(C(=O)O)n(C)c3c-2c(Cl)ccc13 [AZD5991] + Cn1cnc2c(F)c(Nc3ccc(Br)cc3Cl)c(C(=O)NOCCO)cc21 [Selumetinib] (first compound max 1 µM, 7x7, partner max 3 µM) | 0.229 | 0.22 | 0.589 | 0.906 | 0.299 | 0.667 | 0.998 | 0.329 | 0.121 | 0.432 | 0.311 | 0.396 | 0.809 | 0.355 | 0.737 | 0.828 | 0.485 | 0.895 | 0.498 | 0.129 |
| Cc1c2c(nn1C)CSCc1cc(n(C)n1)CSc1cc(c3ccccc3c1)OCCCc1c(C(=O)O)n(C)c3c-2c(Cl)ccc13 [AZD5991] + CCN(CCO)CCCOc1ccc2c(Nc3cc(CC(=O)Nc4cccc(F)c4)[nH]n3)ncnc2c1 [AZD2811] (first compound max 1 µM, 7x7, partner max 1 µM) | 0.238 | 0.906 | 0.342 | 0.733 | 0.313 | 0.776 | 1 | 1 | 0.17 | 0.287 | 0.274 | 0.405 | 1 | 0.283 | 0.896 | 0.948 | 0.376 | 0.809 | 0.235 | 0.33 |
| CC1(C)CCC(CN2CCN(c3ccc(C(=O)NS(=O)(=O)c4ccc(NCC5CCOCC5)c([N+](=O)[O-])c4)c(Oc4cnc5[nH]ccc5c4)c3)CC2)=C(c2ccc(Cl)cc2)C1 [Venetoclax] + COc1cc(Nc2ncc3c(n2)-c2ccc(Cl)cc2C(c2c(F)cccc2OC)=NC3)ccc1C(=O)O [Alisertib] (first compound max 1 µM, 7x7, partner max 10 µM) | 0.248 | 0.797 | 0.489 | 1 | 0.598 | 0.278 | 0.474 | 0.74 | 0.171 | 0.421 | 0.422 | 0.995 | 1 | 0.493 | 0.998 | 0.693 | 0.474 | 0.575 | 0.326 | 0.298 |
| C=CCn1c(=O)c2cnc(Nc3ccc(N4CCN(C)CC4)cc3)nc2n1-c1cccc(C(C)(C)O)n1 [AZD1775] + O=C(c1cc(Cc2n[nH]c(=O)c3ccccc23)ccc1F)N1CCN(C(=O)C2CC2)CC1 [Olaparib] (first compound max 1 µM, partner max 10 µM) | 0.417 | 0.642 | 0.574 | 0.455 | 0.456 | 0.836 | 1 | 0.978 | 0.173 | 0.458 | 0.405 | 0.682 | 0.954 | 0.399 | 0.988 | 0.336 | 0.699 | 0.376 | 0.881 | 0.77 |
| CC(=O)Nc1cccc(-n2c(=O)n(C3CC3)c(=O)c3c(Nc4ccc(I)cc4F)n(C)c(=O)c(C)c32)c1 [Trametinib] + Cc1nc(-c2cn3c(n2)-c2ccc(-c4cnn(C(C)(C)C(N)=O)c4)cc2OCC3)n(C(C)C)n1 [Taselisib] (first compound max 1 µM, 7x7, partner max 10 µM) | 0.43 | 0.514 | 0.903 | 0.381 | 0.558 | 0.798 | 0.121 | 0.986 | 0.972 | 0.841 | 0.41 | 0.921 | 0.696 | 0.846 | 0.47 | 0.946 | 0.703 | 0.928 | 0.917 | 0.813 |
| Cn1cnc2c(F)c(Nc3ccc(Br)cc3Cl)c(C(=O)NOCCO)cc21 [Selumetinib] + CC(C)n1c(=O)n(C)c2cnc3cc(F)c(-c4ccc(OCCCN5CCCCC5)nc4)cc3c21 [AZD1390] (first compound max 10 µM, 7x7, partner max 0.3 µM) | 0.11 | 0.136 | 0.573 | 0.434 | 0.254 | 0.299 | 0.137 | 0.158 | 0.115 | 0.144 | 0.125 | 0.32 | 0.19 | 0.382 | 0.22 | 0.705 | 0.194 | 0.257 | 0.436 | 0.0956 |
| Cn1cnc2c(F)c(Nc3ccc(Br)cc3Cl)c(C(=O)NOCCO)cc21 [Selumetinib] + CCN(CCO)CCCOc1ccc2c(Nc3cc(CC(=O)Nc4cccc(F)c4)[nH]n3)ncnc2c1 [AZD2811] (first compound max 10 µM, 7x7, partner max 1 µM) | 0.198 | 0.933 | 0.623 | 0.413 | 0.346 | 0.321 | 0.117 | 0.927 | 0.134 | 0.224 | 0.203 | 0.397 | 0.96 | 0.428 | 0.645 | 0.983 | 0.251 | 0.313 | 0.493 | 0.284 |
| COc1nnc2ccc(N3CCC(c4ccc(OCCN5CCN(C)C(=O)[C@H]5C)cc4)CC3)nn12 [AZD5153] + Cn1cnc2c(F)c(Nc3ccc(Br)cc3Cl)c(C(=O)NOCCO)cc21 [Selumetinib] (first compound max 1 µM, 7x7, partner max 10 µM) | 0.544 | 0.948 | 0.828 | 0.583 | 0.603 | 0.687 | 0.56 | 0.79 | 0.887 | 0.427 | 0.456 | 0.785 | 0.579 | 0.691 | 0.645 | 1 | 0.707 | 0.894 | 0.819 | 0.728 |
